Literature values as cited in PMC11291853, “Haemodynamic, hormonal and renal actions of osteocrin in normal sheep” (Experimental Physiology, 2024).

Legend:
people = test system: people; parameters: method as in Hirata et al., 1990; settings: exogenous ANP infusions achieving plasma concentrations of ∼150 pmol/L, ref Hirata et al., 1990; cited from earlier work
[1] = sheep; at comparable circulating concentrations (∼30 pmol/L); ref Charles, Espiner, Richards et al., 1996; cited from earlier work
Source text: To our knowledge, the metabolism of the 5 kDa OSTN has not been studied previously in vivo. […] Consistent with this is the longer half‐l ...

NPR-C = settings: purified ovine lung tissue membranes; ref Smith et al., 2000; read-out: K d, binding affinity to NPR-C; cited from earlier work
Method: Actions of OSTN on muscle cells (Subbotina et al., [2015]) and cartilage/bone (Moffatt et al., [2007]; Thomas et al., [2003]) have been studied, whereas few reports have examined the impact of the peptide on plasma concentrations of NPs and on cardiovascular and renal tissues. A crucial issue is the ability of OSTN, in tissues and in plasma, to impact NP concentrations in health or disease. In mice, constant infusion of the 10 kDa peptide [proOSTN (30–130)] at doses of 10 μg/kg/min (∼1000 pmol/kg/min) increased endogenous plasma ANP (by ∼15 pmol/L), similar to increments evoked by administrati ...

Substance: ANP: atrial natriuretic peptide
- Increase in nephrogenous cGMP (people): 10 fold
- Clearance rate (MCR) [1]: 5.7 L/min
- Kd (NPR-C): 0.008 to 0.016 nM
